Test results as given in publication PMC5299588, “Lumican Peptides: Rational Design Targeting ALK5/TGFBRI” (Scientific Reports, 2017).
Entries after “also recorded” stand apart in the source; their conditions may differ. No end group written: not given here.

Key:
corneal epithelium [1] = assay: In vivo corneal epithelium debridement wound healing in Lum−/− mice, peptide eye drops; design: species or system C57BL/6 genetic background; conditions: drops 0.3 μM every 15 min for 5 h
From the text: Lum null (Lum^−/−) mice were also used to examine the efficacy of LumC peptides in promoting epithelium sheet migration following debridement wound (Supplemental Fig. S2).
(§1) Use of experimental mice is in compliance to the ARVO statement for the use of animals in vision research and all procedures are approved by IACUC of the University of Cincinnati. Lum^−/− mice in C57BL/6 genetic background aged 7–8 weeks were used in this study. Mice were anesthetized with intraperitoneal injections of a combination of ketamine (10 mg/kg; Henry Shein) and xylazine (1 mg/kg; Henry Shein) prior to the surgery, and a drop of proparacaine hydrochloride 0.5% (Alcon) was applied to the cornea to deliver local anesthesia before injury. Briefly, a 2 mm diameter trephine was used to demarcate the central epithelial region of the eye and the epithelium within the demarcated region was mechanically removed using an Algerbrush II (Alger Equipment Co., Inc., Lago Vista, TX) while viewing the cornea under a stereomicroscope (Stemi SC II stereomicroscope with epi-fluorescence attachment, Carl ZEISS). Eight mice per group were treated and the experiments were repeated at least two times. Each mouse was topically treated with one drop peptide solution (10 μl) at concentration of 0.3 μM or 10 μL PBS every 15 min for 5 h after wounding. After 5 h, mice were sacrificed. The eyes were excised and fixed in 4% paraformaldehyde in PB (0.1 M phosphate buffer, pH 7.4. whole mount corneas were stained with phalloidin and DAPI and image with a Zeiss Apo Tome microscope (Observer Z1). The migration of epithelium sheet was determined as previously described. In brief, migrated corneal epithelium was measured on whole mount samples in 5 different locations equally distributed around the entire circumference of the wound. The number of animals in each experimental group is on the bars in the bar chart. The statistical analyses as well as symbols are shown in the graph legend. PBS treated Lum^−/− mice were used as negative controls, in which the epithelium sheet migrated less than 50 μm in 5 h (Supplemental Fig. 2 for representative plots). Four Z-staged images were collected from each corneas, the epithelium migration was determined by the distance of migration of epithelium front to the initial injured line as previously described.

ALK5 [2] = target: T1, ALK5 (Homo sapiens, UniProt P36897); assay: kcat/Km of peptides and loss of binding outside EVTLN region; conditions: method not described
T1 sequence (P36897 34-503): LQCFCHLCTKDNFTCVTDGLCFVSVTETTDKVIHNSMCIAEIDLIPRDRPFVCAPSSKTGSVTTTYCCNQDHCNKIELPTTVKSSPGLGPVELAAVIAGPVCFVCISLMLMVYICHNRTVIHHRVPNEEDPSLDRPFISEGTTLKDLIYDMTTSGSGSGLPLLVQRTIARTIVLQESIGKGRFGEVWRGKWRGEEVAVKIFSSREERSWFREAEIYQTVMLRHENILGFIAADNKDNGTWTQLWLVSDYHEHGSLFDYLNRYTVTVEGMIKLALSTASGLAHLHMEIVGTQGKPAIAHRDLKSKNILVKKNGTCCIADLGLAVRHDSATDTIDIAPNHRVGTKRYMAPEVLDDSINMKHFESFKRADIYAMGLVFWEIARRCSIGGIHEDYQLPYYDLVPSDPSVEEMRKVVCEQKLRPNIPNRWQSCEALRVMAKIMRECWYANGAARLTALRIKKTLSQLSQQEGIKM

[3] = Mass spectrometry of LumC13 in solution (dimerization); format: physicochemical; conditions: peptide in solution
corneal epithelium [4] = assay: In vivo corneal epithelium debridement wound healing in mice, peptide eye drops; design: species or system mouse; conditions: for promotion of corneal epithelium wound healing: debridement wound, eye drops 0.3 μM every 15 min for 5 h
Description: To confirm peptide action promoting corneal epithelium wound healing in vivo, mice were subjected to a 2 mm with corneal epithelium debridement. The injured corneas were treated with 10 μl eye drops lumican peptides (0.3 μM) every 15 min for 5 h as previously described. Migration distance was measured between the original wound edge and the wound front. In Lumikine (LumC13C-A) treated corneas, the epithelium sheet moved ∼144 μm. […] The average epithelium migration (μm) and standard deviation were calculated from n corneas of each of two separate experiments.
as §1

ALK5 [5] = target: T1, ALK5; conditions: cited from earlier work
From the text: Proteoglycans (PGs) are complex polymers composed of a core protein to which one or more glycosaminoglycan (GAGs) chains are covalently attached. They play a central role in physiology and disease[1][2][3][4][5][6]: modulating cell metabolism, mediating cell-cell trafficking, providing support for connective tissue and regulating of a wide range of effectors at both systemic and cellular levels. Small leucine rich proteoglycans (SLRPs) are a family of proteoglycans with small core proteins (~40 Kd) that contain hyper variable glycosylation sites with multivalent binding abilities. […] In this present study, we have accessed the binding of rationally designed LumC peptides with a related scoring approach, MM-GBSA, after docking and molecular dynamics simulations. In this method, docking scores are used to define initial binding sites, and more expensive and rigorous methods such as molecular dynamics (MD) simulation and binding free ...

prostate cancer cell = conditions: cited from earlier work
From the text: This could be of particular interest in conditions where patients display delayed wound healing, such as diabetes, which culminates in an increased risk of inflammation and scarring. The significance of synthesizing lumican peptides that mediate TGFbRI signaling also goes beyond promoting skin and corneal wound healing.

ALK5 [6] = target: T1, ALK5; assay: Binding affinity (Kd) of designed peptide; conditions: method not described; highest affinity in all designed peptides

Substance: IKHLRLDGEVTLN [Hybrid 1/3, hybrid peptide …]
- promotion of epithelium wound healing / migration (corneal epithelium [1]): little effect promoting wound healing

Substance: YECLRVANEVTLN [LumC13, peptide designed from the 13 C-terminal amino acids of lumican, …]
- kcat/Km (ALK5 [2]): 1e+06 ± 4000 M⁻¹ s⁻¹
- dimerization in solution via disulfide bond formation [3]: dimerization of the LumC13 peptides in solution via disulfide bond formation of cysteine residue, which reduces the activity of dimerized LumC13
- promotion of epithelium wound healing / migration (corneal epithelium [1]): moderately increased activity in promoting wound healing when compared to LumC13C-A
- promotion of corneal epithelium wound healing (corneal epithelium [4]): increased ability to promote wound healing
- promotion of epithelial cell migration (words, conclusion) (corneal epithelium [4]; in vitro and in vivo wound healing assays): essential to promote epithelial cell migration to the same extent as lumican

Substance: LPPDMYECLRVAN [LumC18ΔC5, Lumican peptide …]
- promotion of epithelium wound healing / migration (corneal epithelium [1]): little effect promoting wound healing

Substance: YEALRVANEVTLN [LumC13C-A, Lumican peptide … (Lumikine)]
- binding to ALK5 to promote wound healing (ALK5 [5]; synthetic LumC13-terminal peptide YEALRVANEVTLN): binding ALK5 to promote wound healing
- promotion of epithelium wound healing / migration (corneal epithelium [1]): promoted wound healing of corneal epithelium debridement of Lum^−/− mice to the same extent as injured wild type mice; also recorded: higher pharmaceutical activity of LumC13C-A compared to LumC13; also recorded: significantly promoted epithelium wound healing
- epithelium migration distance (corneal epithelium [4]; 2 mm debridement, 10 μl eye drops 0.3 μM every 15 min for 5 h, between original wound edge and wound front): ~144 μm
- promotion of corneal epithelium wound healing (corneal epithelium [4]): increased ability to promote wound healing

Substance: IKHLRLDGNRISE [LumC33ΔC20, Lumican peptide …; control peptide]
- kcat/Km (ALK5 [2]): < 100 M⁻¹ s⁻¹
- promotion of epithelium wound healing / migration (corneal epithelium [1]): little effect promoting wound healing
- promotion of corneal epithelium wound healing (corneal epithelium [4]): did not promote epithelium wound healing

Substance: Lumican: class II SLRP member, one of the major proteoglycans in the corneal stroma
- wound healing via C-terminal domain / TGFβRI interaction (ALK5 [5]): promotes wound healing via its C-terminal domain due to its interaction with TGFβRI (ALK5)
- prostate cancer cell migration (prostate cancer cell): inhibits prostate cancer cell migration

Substance: LPPDMYECEVTLN [Hybrid 2/3]
- Kd (ALK5 [6]): 28.7 ± 3.9 µM
